Common to all, as to assay type: cell-based, human
One experiment concerns LO2 cells. Kind of experiment: MTT cell viability assay, normal hepatic LO2 cells. Conditions: normal human hepatic cells, MTT, 24 h incubation; read-out: IC50 LO2. As for the experimental part:
(§1) The human breast cancer cell lines MCF-7, MDA-MB-231, human hepatocellular liver cell line HepG2 and human lung carcinoma epithelial cells A549 were purchased from American Type Culture Collection (ATCC, Manassas, VA, USA). Normal human hepatic LO2 cells were obtained from the Institute of Cell Biology, Academic Sinica (Shanghai, China). The cells were grown in an atmosphere of 5% CO2 at 37 °C in RPMI 1640 medium supplemented with 10% fetal bovine serum, 100 U/mL penicillin and […] streptomycin.
(§2) The viability of cells was measured by a colorimetric MTT assay. Briefly, 1 × 10^4 cells/well in 96-well microplates were exposed to different concentration of polyynes and their acetylated derivatives respectively for 24 h incubation, following addition of 20 μL MTT solution (4 mg/mL) to each well for another 4 h incubation at 37 °C. Finally, the medium was removed and replaced with 100 μL dimethyl sulfoxide which was added to dissolve the dye crystal presented in cells. The absorbance was recorded at 570 nm using a microplate reader (1420 Multilabel counter victor^3, Perkin-Elmer, Waltham, MA, USA). The results were expressed as ratio of absorbance between treatments and control cells (solvent vehicle set at 100%). Four replicate wells were tested per assay which was repeated three times.

Experiment [1] relates to MDA-MB-231 cells. The experiment in a line: Hoechst 33342 staining for apoptosis. Conditions: OHR-1 15 μM, OHR-2 5 μM, OHR-3 10 μM, OHR-5 15 μM; 12 h. As for the experimental part: MDA-MB-231 cells were seeded in the flat-bottomed 6-well plates and treated with OHR-1, -2, -3 and -5. Cells treated with solvent vehicle served as controls. In 12 h after treatment, cells were fixed in 4% polyoxymethylene solution for 30 min and then washed with PBS. The fixed cells were incubated with Hoechst 33342 for 15 min at room temperature in the dark and then washed with PBS twice, which were finally observed under a fluorescence microscope (Convert Fluorescence Microsope Axiovert 200, HAL 100, HBO 100, Carl Zeiss MicroImaging Co., Ltd., Oberkochen, Germany) at a magnification of ×400.

The subject of experiment [2] is MDA-MB-231 cells. The experiment in a line: Cell cycle analysis by PI staining and flow cytometry. To be noted: 24 h; for G2/M arrest rate at low concentration: OHR-1 7.5 μM, OHR-2 2.5 μM, OHR-3 5 μM, OHR-5 7.5 μM; for G2/M arrest rate at high concentration: OHR-1 15 μM, OHR-2 5 μM, OHR-3 10 μM, OHR-5 15 μM. Here is the method: Cells were seeded in 6-well tissue culture plates and treated with DMSO control or different concentration of OHR-1, -2, -3 and -5 for 24 h. Then, the cells were harvested and fixed gently with cold 70% ethanol at −20 °C overnight. Finally, the cells were washed with PBS and re-suspended in 300 μL of propidium iodide (PI) stain solution (20 μg/mL PI and 8 μg/mL DNase-free RNase) for 20 min at room temperature in the dark. The cells were analyzed with a flow cytometry and Mod Fit LT 3.0 software (Variety Software House, Topsham, ME, USA). For each measurement, at least 20,000 cells were counted.

Another experiment deals with MCF-7 cells. The experiment in a line: MTT cell viability assay, MCF-7 cells. Conditions: MTT, 24 h incubation; read-out: IC50 MCF-7. Here is the method:
as §1, §2

Experiment [3] has as its system MDA-MB-231 cells. The experiment in a line: MTT cell viability assay, MDA-MB-231 cells. Conditions: MTT, 24 h incubation; read-out: IC50 MDA-MB-231. Here is the method: as §1, §2
In a further experiment the test system is A549 cells. Kind of experiment: MTT cell viability assay, A549 cells. To be noted: for IC50: MTT, 24 h incubation, read-out: IC50 A549. As for the experimental part: as §1, §2
The test system of a further experiment is HepG2 cells. The experiment in a line: MTT cell viability assay, HepG2 cells. Conditions: MTT, 24 h incubation; read-out: IC50 HepG2. As for the experimental part:
as §1, §2

Experiment [4] deals with MDA-MB-231 cells. The experiment in a line: JC-1 mitochondrial membrane potential. To be noted: high concentration (OHR-1 15 μM, OHR-2 5 μM, OHR-3 10 μM, OHR-5 15 μM), 24 h. As for the experimental part: The MDA-MB-231 cells were treated with OHR-1, -2, -3 and -5 for 24 h in a humidified atmosphere (37 °C with 5% CO2). The cells were collected and responded in 0.5 mL culture medium with JC-1 dye (1 μg/mL) for 20 min at 37 °C in dark. Fluorescence was monitored by both flow cytometry (BD Biosciences, San Jose, CA, USA) and fluorescence microscope. The Δψm were indicated by the rato of […] fluorescence intensity. The data were expressed as ratio of Δψm between treatments and control cells (solvent vehicle set at 100%).

Several values for one entry are separate records, joined by “and”; a condition that tells them apart may be missing. Equal values may be shown once.

For “(3S,8S,Z)-Heptadeca-1,9-dien-4,6-diyne-3,8-diyl diacetate [OHR-2]”, the IC50 in the experiment on LO2 cells worked out at 32.1 ± 9 µM; in the experiment with MCF-7 cells it was 36.9 ± 4.8 µM; with MDA-MB-231 cells [3], 4.8 ± 0.5 µM; with A549 cells it was 24.7 ± 5.6 µM; in the experiment on HepG2 cells it was 6.6 ± 1.5 µM. Further, the “induction of apoptosis (Hoechst staining)” value (“induction of apoptosis” below) in the experiment with MDA-MB-231 cells [1] is recorded as “induce obvious apoptosis”. The “G2/M arrest rate at low concentration” value in the experiment on MDA-MB-231 cells [2] is given as 22.6% ± 2.6%. In addition, in the experiment on MDA-MB-231 cells [2], the “G2/M arrest rate at high concentration” value is recorded as 30.4% ± 3.1%. For the same substance, the “effect on mitochondrial membrane potential Δψm (JC-1)” value in the experiment on MDA-MB-231 cells [4] is “decreasing the Δψm”.
On to “(3S,8S,Z)-Heptadeca-9-en-4,6-diyne-3,8-diyl diacetate [OHR-1]”, for which the concentration for half-maximal inhibition (IC50) is above 300 µM in the experiment with LO2 cells; above 300 µM with MCF-7 cells; 13.9 ± 3.4 µM with MDA-MB-231 cells [3]; above 300 µM in the experiment with A549 cells; 115 ± 17.1 µM in the experiment on HepG2 cells. Also, the “induction of apoptosis” value with MDA-MB-231 cells [1] was “induce obvious apoptosis”. Besides, the “G2/M arrest rate at low concentration” value with MDA-MB-231 cells [2] was 24.6% ± 3.6%. The “G2/M arrest rate at high concentration” value with MDA-MB-231 cells [2] was 31.7% ± 3.2%. In addition, the “effect on mitochondrial membrane potential Δψm (JC-1)” value with MDA-MB-231 cells [4] is recorded as “decreasing the Δψm”.
Turning to “(3S,8S,Z)-3-Hydroxyheptadeca-9-en-4,6-diyn-8-yl acetate [OHR-3]”, the half-maximal inhibitory concentration (IC50) was 31.5 ± 4 µM with LO2 cells; 25.8 ± 5.8 µM in the experiment on MCF-7 cells; 6.6 ± 0.8 µM in the experiment with MDA-MB-231 cells [3]; 30.1 µM and 31.4 µM in the experiment on A549 cells; 31.5 ± 2.1 µM with HepG2 cells. Besides, the “induction of apoptosis” value in the experiment with MDA-MB-231 cells [1] was “induce obvious apoptosis”. The “G2/M arrest rate at low concentration” value in the experiment on MDA-MB-231 cells [2] is 24.2% ± 2.9%. Moreover, the “G2/M arrest rate at high concentration” value in the experiment with MDA-MB-231 cells [2] is recorded as 25.6% ± 7.5%. Besides, the “A549 cell growth inhibited” value in the experiment on A549 cells (at 60 µM, p < 0.01) amounted to 90.8%. The “effect on mitochondrial membrane potential Δψm (JC-1)” value in the experiment with MDA-MB-231 cells [4] is reported as “decreasing the Δψm”.
As for “(3S,8S,Z)-3-Hydroxyheptadeca-1,9-dien-4,6-diyn-8-yl acetate [OHR-5]”, the IC50 with LO2 cells is 31.1 ± 1.8 µM; in the experiment on MCF-7 cells it was 30.6 ± 3.1 µM; with MDA-MB-231 cells [3] it was 13.9 ± 5.8 µM; with A549 cells, 30.1 ± 4.4 µM; in the experiment with HepG2 cells it was 43.7 ± 6.6 µM. Besides, in the experiment on MDA-MB-231 cells [1], the “induction of apoptosis” value was “induce obvious apoptosis”. The “G2/M arrest rate at low concentration” value with MDA-MB-231 cells [2] is reported as 33.2% ± 4.6%. The “G2/M arrest rate at high concentration” value in the experiment on MDA-MB-231 cells [2] is 38.0% ± 1.7%. Moreover, the “effect on mitochondrial membrane potential Δψm (JC-1)” value in the experiment with MDA-MB-231 cells [4] is given as “decreasing the Δψm”.
